In ChEMBL document CHEMBL1201862, “PubChem BioAssay data set” (2004):
Activity calls are given as the source filed them.

Tests used:
[1] = biological target: T1, Mannose-6-phosphate isomerase (Homo sapiens, UniProt P34949); assay: inhibitors of human PMI, primary screen, biochemical, fluorescence intensity, coupled assay (AID 1209)
T1 sequence (P34949 whole entry): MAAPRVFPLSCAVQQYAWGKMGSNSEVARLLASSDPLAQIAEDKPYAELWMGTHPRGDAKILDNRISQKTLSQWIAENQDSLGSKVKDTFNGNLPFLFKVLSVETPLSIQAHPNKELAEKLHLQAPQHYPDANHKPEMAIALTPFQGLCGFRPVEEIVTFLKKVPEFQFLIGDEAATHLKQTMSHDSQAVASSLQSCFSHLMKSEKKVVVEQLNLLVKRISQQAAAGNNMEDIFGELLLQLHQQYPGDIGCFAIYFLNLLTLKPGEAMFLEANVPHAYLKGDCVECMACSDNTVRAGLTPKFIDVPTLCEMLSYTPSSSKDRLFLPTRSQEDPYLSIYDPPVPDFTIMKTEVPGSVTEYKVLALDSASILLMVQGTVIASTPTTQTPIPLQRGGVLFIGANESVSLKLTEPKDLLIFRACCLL

[2] = biological target: T2, Calpain-2 catalytic subunit (Sus scrofa, UniProt P43367); assay: pig calpain II inhibitor potency, dose response, biochemical, fluorogenic peptide substrate (AID 1420); format: functional
T2 sequence (P43367 whole entry): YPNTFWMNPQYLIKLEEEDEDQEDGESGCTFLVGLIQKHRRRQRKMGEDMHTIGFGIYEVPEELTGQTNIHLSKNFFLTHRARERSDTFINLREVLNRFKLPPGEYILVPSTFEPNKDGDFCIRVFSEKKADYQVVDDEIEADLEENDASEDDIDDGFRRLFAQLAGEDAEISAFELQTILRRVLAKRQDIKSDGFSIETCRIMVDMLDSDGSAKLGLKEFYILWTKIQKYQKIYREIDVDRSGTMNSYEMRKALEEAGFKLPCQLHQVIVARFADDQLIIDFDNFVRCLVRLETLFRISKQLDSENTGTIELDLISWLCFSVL

[3] = biological target: Intestinal-type alkaline phosphatase (Mus musculus, UniProt P24822); assay: PubChem AID 488874; format: functional
[4] = biological target: T3, Intestinal-type alkaline phosphatase (Homo sapiens, UniProt P09923); assay: human IAP inhibitors, dose response, biochemical, luminescent, uHTS hits, set 2 (AID 488793); format: functional
[5] = biological target: T3, Intestinal-type alkaline phosphatase; assay: Dose Response confirmation of uHTS hits from a small molecule inhibitors of human intestinal alkaline phosphatase via a luminescent assay. [Related pubchem assays (depositor defined):AID2544, AID2574]; format: functional
[6] = biological target: Eukaryotic translation initiation factor 4E (Mus musculus, UniProt P63073); assay: eIF4E–eIF4G protein interaction inhibitors, dose response, biochemical, TR-FRET (AID 855); format: functional;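 also: potency for disrupting eIF4E binding to eIF4GI seen as loss of FRET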
[7] = biological target: T4, Alkaline phosphatase, tissue-nonspecific isozyme (Homo sapiens, UniProt P05186); assay: inhibition of tissue-nonspecific alkaline phosphatase – biochemical, dose response (AID 488882); format: functional
T4 sequence (P05186 whole entry): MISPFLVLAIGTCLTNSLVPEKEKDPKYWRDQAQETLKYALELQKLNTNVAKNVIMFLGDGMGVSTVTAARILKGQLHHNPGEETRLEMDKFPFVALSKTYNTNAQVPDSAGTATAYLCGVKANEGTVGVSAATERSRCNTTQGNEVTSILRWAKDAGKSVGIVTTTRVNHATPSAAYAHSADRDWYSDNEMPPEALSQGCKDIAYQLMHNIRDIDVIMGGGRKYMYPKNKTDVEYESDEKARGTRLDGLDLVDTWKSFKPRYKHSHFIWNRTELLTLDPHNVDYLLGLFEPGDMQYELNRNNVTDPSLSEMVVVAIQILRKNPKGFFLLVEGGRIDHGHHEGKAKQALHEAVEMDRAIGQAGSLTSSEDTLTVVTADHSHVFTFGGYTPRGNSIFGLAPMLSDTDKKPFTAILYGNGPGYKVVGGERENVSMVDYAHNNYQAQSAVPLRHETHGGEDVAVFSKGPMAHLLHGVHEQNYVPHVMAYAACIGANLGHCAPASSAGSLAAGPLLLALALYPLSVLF

[8] = biological target: T5, Histone-lysine N-methyltransferase NSD2 (Homo sapiens, UniProt O96028); format: biochemical
T5 sequence (O96028 whole entry): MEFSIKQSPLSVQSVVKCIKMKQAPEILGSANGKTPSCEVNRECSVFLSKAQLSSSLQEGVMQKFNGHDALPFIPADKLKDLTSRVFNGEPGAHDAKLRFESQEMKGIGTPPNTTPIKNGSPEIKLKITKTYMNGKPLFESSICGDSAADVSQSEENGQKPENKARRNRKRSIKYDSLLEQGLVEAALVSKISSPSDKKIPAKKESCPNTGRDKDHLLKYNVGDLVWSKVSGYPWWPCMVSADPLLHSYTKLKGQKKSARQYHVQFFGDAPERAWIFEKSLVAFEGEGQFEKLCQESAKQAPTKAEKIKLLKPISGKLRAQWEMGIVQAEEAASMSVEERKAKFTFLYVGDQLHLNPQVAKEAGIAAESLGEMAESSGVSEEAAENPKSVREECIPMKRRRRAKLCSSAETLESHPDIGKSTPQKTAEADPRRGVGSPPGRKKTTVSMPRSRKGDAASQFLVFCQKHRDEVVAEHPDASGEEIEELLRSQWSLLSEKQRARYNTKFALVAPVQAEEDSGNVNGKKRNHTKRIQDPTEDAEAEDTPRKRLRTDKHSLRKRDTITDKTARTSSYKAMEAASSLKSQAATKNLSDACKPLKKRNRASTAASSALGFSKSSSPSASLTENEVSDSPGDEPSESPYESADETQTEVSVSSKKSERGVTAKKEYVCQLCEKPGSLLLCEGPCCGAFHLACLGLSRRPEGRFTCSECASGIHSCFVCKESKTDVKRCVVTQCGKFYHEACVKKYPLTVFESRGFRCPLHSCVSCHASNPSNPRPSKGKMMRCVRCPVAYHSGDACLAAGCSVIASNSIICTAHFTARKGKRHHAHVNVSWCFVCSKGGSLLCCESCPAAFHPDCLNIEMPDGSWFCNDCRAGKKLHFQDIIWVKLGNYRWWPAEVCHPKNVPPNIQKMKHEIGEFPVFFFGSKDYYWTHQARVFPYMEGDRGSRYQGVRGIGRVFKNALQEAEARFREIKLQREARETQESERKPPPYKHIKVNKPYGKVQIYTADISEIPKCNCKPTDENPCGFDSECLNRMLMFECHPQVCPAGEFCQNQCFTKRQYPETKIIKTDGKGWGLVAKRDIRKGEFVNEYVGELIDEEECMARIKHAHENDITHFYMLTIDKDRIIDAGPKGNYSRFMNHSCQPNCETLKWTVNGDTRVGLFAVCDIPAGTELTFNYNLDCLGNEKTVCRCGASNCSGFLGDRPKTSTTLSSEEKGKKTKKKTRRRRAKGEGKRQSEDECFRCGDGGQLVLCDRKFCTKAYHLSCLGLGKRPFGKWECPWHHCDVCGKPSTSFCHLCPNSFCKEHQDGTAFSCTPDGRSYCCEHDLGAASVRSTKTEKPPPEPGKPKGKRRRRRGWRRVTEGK

T3 sequence (P09923 whole entry): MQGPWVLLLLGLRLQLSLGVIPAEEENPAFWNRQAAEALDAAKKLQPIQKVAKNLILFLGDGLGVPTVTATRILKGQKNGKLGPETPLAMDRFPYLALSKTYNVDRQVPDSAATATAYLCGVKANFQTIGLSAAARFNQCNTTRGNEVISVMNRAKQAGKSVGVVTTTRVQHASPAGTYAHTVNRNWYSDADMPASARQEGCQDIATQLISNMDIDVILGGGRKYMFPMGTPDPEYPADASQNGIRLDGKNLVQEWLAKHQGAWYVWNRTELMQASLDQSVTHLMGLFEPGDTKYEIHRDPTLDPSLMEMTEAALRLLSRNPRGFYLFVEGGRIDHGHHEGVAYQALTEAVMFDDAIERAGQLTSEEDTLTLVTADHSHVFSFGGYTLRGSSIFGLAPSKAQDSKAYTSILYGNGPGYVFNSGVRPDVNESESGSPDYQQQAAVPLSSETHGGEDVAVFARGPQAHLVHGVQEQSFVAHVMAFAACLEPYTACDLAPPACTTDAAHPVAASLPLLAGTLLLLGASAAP
Eukaryotic translation initiation factor 4E, sequence (P63073 whole entry): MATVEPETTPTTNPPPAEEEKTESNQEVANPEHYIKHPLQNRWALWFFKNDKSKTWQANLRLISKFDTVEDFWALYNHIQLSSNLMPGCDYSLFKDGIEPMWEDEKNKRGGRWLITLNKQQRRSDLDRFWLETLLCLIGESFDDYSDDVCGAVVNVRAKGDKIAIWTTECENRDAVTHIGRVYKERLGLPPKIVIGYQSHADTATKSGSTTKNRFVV
Intestinal-type alkaline phosphatase (Mus musculus, UniProt P24822), sequence (P24822 whole entry): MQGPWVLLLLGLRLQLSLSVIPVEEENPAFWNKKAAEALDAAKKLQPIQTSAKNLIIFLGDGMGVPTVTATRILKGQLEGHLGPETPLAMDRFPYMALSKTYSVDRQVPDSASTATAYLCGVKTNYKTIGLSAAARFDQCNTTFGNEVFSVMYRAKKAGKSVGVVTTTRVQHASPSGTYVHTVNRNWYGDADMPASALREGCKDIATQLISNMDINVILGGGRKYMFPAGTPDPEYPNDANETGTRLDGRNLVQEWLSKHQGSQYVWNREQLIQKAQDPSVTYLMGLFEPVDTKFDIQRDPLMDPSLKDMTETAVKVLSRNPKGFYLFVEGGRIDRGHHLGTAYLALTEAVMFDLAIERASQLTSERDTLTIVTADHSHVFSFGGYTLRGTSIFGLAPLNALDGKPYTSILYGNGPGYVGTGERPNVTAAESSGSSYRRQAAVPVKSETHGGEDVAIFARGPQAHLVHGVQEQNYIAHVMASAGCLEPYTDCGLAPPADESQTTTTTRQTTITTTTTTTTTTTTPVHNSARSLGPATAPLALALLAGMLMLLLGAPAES

IC50 [1]: > 50 µM (not active)
IC50 [2]: 24.6 µM (not active)
IC50 [3]: 11 µM (active)
IC50 [4]: 10.2 µM (active)
IC50 [5]: 9.63 µM (active)
IC50 [6]: 50 µM (inactive)
IC50 [7]: 10.8 µM (active)
AC50 [8]: > 20 µM (inactive)
SMILES: CC[n+]1c(/C=C/c2c[nH]c3ccccc23)ccc2cc(C)ccc21
